Source: PubChem BioAssay (NCI)
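1) Cells in 96-well plates. 2) Compound, 48 h, 5 concentrations. 3) Linear interpolation between surrounding doses. 4) Unreached endpoint = highest concentration. Here, GI50 denotes the concentration required for 50% inhibition of growth. TGI is the concentration that stops growth completely.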

Experiments:
Assay in all cases: inhibition of tumour cell growth, NCI panel, 48 h
SNB-75 CNS = system: SNB-75 CNS
SK-OV-3 ovarian = system: SK-OV-3 ovarian
OVCAR-8 ovarian = system: OVCAR-8 ovarian
HL-60(TB) leukemia = system: HL-60(TB) leukemia
ACHN renal = system: ACHN renal
UACC-257 melanoma = system: UACC-257 melanoma
SK-MEL-28 melanoma = system: SK-MEL-28 melanoma
NCI-H522 lung = system: NCI-H522 lung
HOP-62 NSCLC = system: HOP-62 NSCLC
HCC-2998 colon = system: HCC-2998 colon
SK-MEL-2 melanoma = system: SK-MEL-2 melanoma
U251 CNS = system: U251 CNS
SF-268 CNS = system: SF-268 CNS
SR leukemia = system: SR leukemia
K-562 leukemia = system: K-562 leukemia
OVCAR-3 ovarian = system: OVCAR-3 ovarian
IGROV1 ovarian = system: IGROV1 ovarian
A498 renal = system: A498 renal
MDA-MB-435 = system: MDA-MB-435
CAKI-1 renal = system: CAKI-1 renal
HCT-116 colon = system: HCT-116 colon
HCT-15 colon = system: HCT-15 colon
SW-620 colon = system: SW-620 colon
PC-3 prostate = system: PC-3 prostate
T-47D breast = system: T-47D breast
NCI-H460 lung = system: NCI-H460 lung
EKVX NSCLC = system: EKVX NSCLC

Compound: COc1cc(C(=O)/C=C/c2c(C(F)(F)F)nc3sccn23)cc(OC)c1OC
- GI50 (SNB-75 CNS): 1.87 µM
- TGI (SNB-75 CNS): 4.86 µM
- GI50 (SK-OV-3 ovarian): 2.87 µM
- TGI (SK-OV-3 ovarian): 8.99 µM
- GI50 (OVCAR-8 ovarian): 3.08 µM
- TGI (OVCAR-8 ovarian): 22.6 µM
- GI50 (HL-60(TB) leukemia): 1.83 µM
- TGI (HL-60(TB) leukemia): 7.63 µM
- GI50 (ACHN renal): 1.82 µM
- TGI (ACHN renal): 3.66 µM
- GI50 (UACC-257 melanoma): 1.9 µM
- TGI (UACC-257 melanoma): 4.2 µM
- GI50 (SK-MEL-28 melanoma): 1.69 µM
- TGI (SK-MEL-28 melanoma): 3.1 µM
- GI50 (NCI-H522 lung): 2.03 µM
- TGI (NCI-H522 lung): 4.91 µM
- GI50 (HOP-62 NSCLC): 1.93 µM
- TGI (HOP-62 NSCLC): 3.92 µM
- GI50 (HCC-2998 colon): 1.71 µM
- TGI (HCC-2998 colon): 3.13 µM
- GI50 (SK-MEL-2 melanoma): 2.26 µM
- TGI (SK-MEL-2 melanoma): 5.09 µM
- GI50 (U251 CNS): 1.38 µM
- TGI (U251 CNS): 2.79 µM
- GI50 (SF-268 CNS): 1.74 µM
- TGI (SF-268 CNS): 3.57 µM
- GI50 (SR leukemia): 0.54 µM
- TGI (SR leukemia): 3.61 µM
- GI50 (K-562 leukemia): 1.74 µM
- TGI (K-562 leukemia): 6.27 µM
- GI50 (OVCAR-3 ovarian): 1.86 µM
- TGI (OVCAR-3 ovarian): 3.4 µM
- GI50 (IGROV1 ovarian): 2.66 µM
- TGI (IGROV1 ovarian): 61.4 µM
- GI50 (A498 renal): 1.89 µM
- TGI (A498 renal): 3.42 µM
- GI50 (MDA-MB-435): 1.61 µM
- TGI (MDA-MB-435): 4.35 µM
- GI50 (CAKI-1 renal): 1.76 µM
- TGI (CAKI-1 renal): 5.31 µM
- GI50 (HCT-116 colon): 1.01 µM
- TGI (HCT-116 colon): 2.19 µM
- GI50 (HCT-15 colon): 1.8 µM
- TGI (HCT-15 colon): 5.39 µM
- GI50 (SW-620 colon): 1.67 µM
- TGI (SW-620 colon): 3.56 µM
- GI50 (PC-3 prostate): 2.66 µM
- TGI (PC-3 prostate): 8.69 µM
- GI50 (T-47D breast): 2.12 µM
- TGI (T-47D breast): 5.76 µM
- GI50 (NCI-H460 lung): 1.65 µM
- TGI (NCI-H460 lung): 3.94 µM
- GI50 (EKVX NSCLC): 2.72 µM
- TGI (EKVX NSCLC): 10.7 µM
